Assay results published in article doi:10.1101/2021.04.14.439284v2 (biorxiv, 2021).

Legend:
[1] = biological target: T1, bovine serum albumin (BSA) (Bos taurus, UniProt P02769); experiment: uSTA saturation transfer NMR, Bloch-McConnell fit; type: binding
T1 construct: gene ALB; commercial native protein (Sigma Aldrich), non-modified

[2] = biological target: T2, E. coli trehalose repressor TreR (Escherichia coli, UniProt P36673); experiment: uSTA saturation transfer NMR; type: binding; settings: weak ligand
T2 sequence (P36673 1-315): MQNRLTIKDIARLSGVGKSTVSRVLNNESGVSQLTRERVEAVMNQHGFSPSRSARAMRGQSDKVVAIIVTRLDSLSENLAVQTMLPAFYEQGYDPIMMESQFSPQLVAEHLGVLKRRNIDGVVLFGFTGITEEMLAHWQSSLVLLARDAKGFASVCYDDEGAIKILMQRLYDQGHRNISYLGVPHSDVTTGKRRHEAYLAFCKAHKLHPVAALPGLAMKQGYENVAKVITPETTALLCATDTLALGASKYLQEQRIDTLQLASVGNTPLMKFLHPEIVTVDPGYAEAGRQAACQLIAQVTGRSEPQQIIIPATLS

T1 sequence (P02769 25-607): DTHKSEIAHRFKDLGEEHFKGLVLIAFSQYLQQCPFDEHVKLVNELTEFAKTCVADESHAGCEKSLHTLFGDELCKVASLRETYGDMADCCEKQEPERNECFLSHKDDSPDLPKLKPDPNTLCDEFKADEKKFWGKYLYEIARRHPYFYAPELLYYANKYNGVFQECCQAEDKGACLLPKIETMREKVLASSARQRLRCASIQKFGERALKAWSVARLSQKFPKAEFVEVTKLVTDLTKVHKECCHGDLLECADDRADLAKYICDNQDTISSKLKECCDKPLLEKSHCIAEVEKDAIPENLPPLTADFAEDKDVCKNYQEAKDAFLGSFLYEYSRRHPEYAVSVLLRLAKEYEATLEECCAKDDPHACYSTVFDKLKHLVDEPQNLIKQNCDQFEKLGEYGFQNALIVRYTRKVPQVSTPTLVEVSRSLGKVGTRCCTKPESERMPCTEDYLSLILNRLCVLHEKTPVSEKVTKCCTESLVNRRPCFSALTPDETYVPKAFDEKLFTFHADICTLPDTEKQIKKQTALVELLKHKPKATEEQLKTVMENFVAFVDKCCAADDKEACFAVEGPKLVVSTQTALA

Row | Structure (SMILES) | Kd [1] [µM] | transfer efficiency [2]
1 | N[C@@H](Cc1c[nH]c2ccccc12)C(=O)O [L-tryptophan] | 38 ± 15 | –
2 | OC[C@H]1O[C@H](O[C@H]2O[C@H](CO)[C@@H](O)[C@H](O)[C@H]2O)[C@H](O)[C@@H](O)[C@@H]1O [trehalose] | – | trehalose (Tre) binds only weakly to trehalose repressor protein TreR
